Results as given in PubChem BioAssay AID1845219 (Molecular Pharmacology Branch, DTP, NCI, 2023).
Where “and” joins values, the source holds several entries; their conditions need not be identical. Equal entries are not always repeated.

Tested on: SYO-1 tumor spheroids, viability % test/control
Assay: Anticancer human tumor SYO-1 cell line growth inhibition;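 also: spheroids exposed to agents for 7 days before viability read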;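 as to viability, T/C: 100% = DMSO vehicle control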
Settings: spheroids with HUVEC and MSC; for viability, T/C: stronger effect = lower value
How it was run: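 Complex spheroids of malignant cells with endothelial cells and mesenchymal stem cells; agents alone or combined, from near clinical Cmax (or 10 microM if unknown) down in half-log steps, 0.25% DMSO final.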

[1] = curve of first compound, second compound 0.003 µM
[2] = curve of first compound, second compound 0.00949 µM
[3] = curve of first compound, second compound 0.03 µM
[4] = curve of first compound, second compound 0.0949 µM
[5] = curve of first compound, second compound 0.3 µM
[6] = second compound 0.003 µM, first compound 0.0316 µM
[7] = second compound 0.003 µM, first compound 0.1 µM
[8] = second compound 0.003 µM, first compound 0.316 µM
[9] = second compound 0.003 µM, first compound 1 µM
[10] = second compound 0.003 µM, first compound 3.16 µM
[11] = second compound 0.003 µM, first compound 10 µM
[12] = second compound 0.00949 µM, first compound 0.0316 µM
[13] = second compound 0.00949 µM, first compound 0.1 µM
[14] = second compound 0.00949 µM, first compound 0.316 µM
[15] = second compound 0.00949 µM, first compound 1 µM
[16] = second compound 0.00949 µM, first compound 3.16 µM
[17] = second compound 0.00949 µM, first compound 10 µM
[18] = second compound 0.03 µM, first compound 0.0316 µM
[19] = second compound 0.03 µM, first compound 0.1 µM
[20] = second compound 0.03 µM, first compound 0.316 µM
[21] = second compound 0.03 µM, first compound 1 µM
[22] = second compound 0.03 µM, first compound 3.16 µM
[23] = second compound 0.03 µM, first compound 10 µM
[24] = second compound 0.0949 µM, first compound 0.0316 µM
[25] = second compound 0.0949 µM, first compound 0.1 µM
[26] = second compound 0.0949 µM, first compound 0.316 µM
[27] = second compound 0.0949 µM, first compound 1 µM
[28] = second compound 0.0949 µM, first compound 3.16 µM
[29] = second compound 0.0949 µM, first compound 10 µM
[30] = second compound 0.3 µM, first compound 0.0316 µM
[31] = second compound 0.3 µM, first compound 0.1 µM
[32] = second compound 0.3 µM, first compound 0.316 µM
[33] = second compound 0.3 µM, first compound 1 µM
[34] = second compound 0.3 µM, first compound 3.16 µM
[35] = second compound 0.3 µM, first compound 10 µM

SMILES: CC(C)n1c(=O)n(C)c2cnc3cc(F)c(-c4ccc(OCCCN5CCCCC5)nc4)cc3c21 + CC[C@@]1(O)C(=O)OCc2c1cc1n(c2=O)Cc2cc3c(CN(C)C)c(O)ccc3nc2-1
- IC50 [1]: < 31.6 nM
- IC50 [2]: < 31.6 nM
- IC50 [3]: < 31.6 nM
- IC50 [4]: < 31.6 nM
- IC50 [5]: < 31.6 nM
- viability, T/C [6]: 7.3%
- viability, T/C [7]: 7.98%
- viability, T/C [8]: 8.08%
- viability, T/C [9]: 5.73%
- viability, T/C [10]: 1.45%
- viability, T/C [11]: 0.47%
- viability, T/C [12]: 2.88%
- viability, T/C [13]: 3.1%
- viability, T/C [14]: 2.8%
- viability, T/C [15]: 2.56%
- viability, T/C [16]: 1.27%
- viability, T/C [17]: 0.3%
- viability, T/C [18]: 2.53%
- viability, T/C [19]: 2.44%
- viability, T/C [20]: 2.23%
- viability, T/C [21]: 2.14%
- viability, T/C [22]: 1.02%
- viability, T/C [23]: 0.26%
- viability, T/C [24]: 1.61%
- viability, T/C [25]: 1.69%
- viability, T/C [26]: 1.67%
- viability, T/C [27]: 1.34%
- viability, T/C [28]: 1.18%
- viability, T/C [29]: 0.25%
- viability, T/C [30]: 1.48%
- viability, T/C [31]: 1.31%
- viability, T/C [32]: 1.3%
- viability, T/C [33]: 1.31%
- viability, T/C [34]: 0.93%
- viability, T/C [35]: 0.28%

SMILES: Cc1cc(C)c(CNC(=O)c2cc(-c3ccc(CN4CCOCC4)cc3)cc3c2cnn3C2CCCC2)c(=O)[nH]1 + CC[C@@]1(O)C(=O)OCc2c1cc1n(c2=O)Cc2cc3c(CN(C)C)c(O)ccc3nc2-1
- IC50 [1]: 8350 nM
- IC50 [2]: < 31.6 nM
- IC50 [3]: < 31.6 nM
- IC50 [4]: < 31.6 nM
- IC50 [5]: < 31.6 nM
- viability, T/C [6]: 89.3%
- viability, T/C [7]: 90.5%
- viability, T/C [8]: 91.4%
- viability, T/C [9]: 91.9%
- viability, T/C [10]: 80.6%
- viability, T/C [11]: 43.9%
- viability, T/C [12]: 10.4%
- viability, T/C [13]: 9.41%
- viability, T/C [14]: 15.2%
- viability, T/C [15]: 12.5%
- viability, T/C [16]: 8.6%
- viability, T/C [17]: 3.78%
- viability, T/C [18]: 1.69%
- viability, T/C [19]: 1.58%
- viability, T/C [20]: 1.52%
- viability, T/C [21]: 1.59%
- viability, T/C [22]: 1.68%
- viability, T/C [23]: 2.01%
- viability, T/C [24]: 1.54%
- viability, T/C [25]: 1.74%
- viability, T/C [26]: 1.49%
- viability, T/C [27]: 1.89%
- viability, T/C [28]: 2.19%
- viability, T/C [29]: 1.93%
- viability, T/C [30]: 1.86%
- viability, T/C [31]: 1.8%
- viability, T/C [32]: 2.05%
- viability, T/C [33]: 2.19%
- viability, T/C [34]: 2.23%
- viability, T/C [35]: 1.83%

SMILES: COc1ccc([C@@H](O)c2cc(-c3ncnc4cc(N5CCOCC5)ccc34)c(F)cc2Cl)nn1
- viability, T/C (compound 0.0316 µM): 109% and 108% and 104%
- viability, T/C (compound 0.1 µM): 108% and 107% and 101%
- viability, T/C (compound 0.316 µM): 104% and 106% and 103%
- viability, T/C (compound 1 µM): 105% and 101% and 102%
- viability, T/C (compound 3.16 µM): 66.1% (2×) and 84.2%
- viability, T/C (compound 10 µM): 7.28% and 14.2% and 20.4%
- IC50 (curve of compound): 4310 nM and 4520 nM and 5860 nM

SMILES: O=C(c1cc(Cc2n[nH]c(=O)c3ccccc23)ccc1F)N1CCN(C(=O)C2CC2)CC1 + COc1cc2c(cc1O)CCNC21CSC2c3c(OC(C)=O)c(C)c4c(c3C(COC1=O)N1C(O)C3Cc5cc(C)c(OC)c(O)c5C(C21)N3C)OCO4
- IC50 (curve of first compound, second compound 30 pM): 1590 nM
- IC50 (curve of first compound, second compound 94.9 pM): 575 nM
- IC50 (curve of first compound, second compound 0.0003 µM): < 94.9 nM
- IC50 (curve of first compound, second compound 0.000949 µM): < 94.9 nM
- IC50 [1]: < 94.9 nM
- viability, T/C (second compound 30 pM, first compound 0.0949 µM): 101%
- viability, T/C (second compound 30 pM, first compound 0.3 µM): 92.3%
- viability, T/C (second compound 30 pM, first compound 0.949 µM): 84.7%
- viability, T/C (second compound 30 pM, first compound 3 µM): 7.77%
- viability, T/C (second compound 30 pM, first compound 9.49 µM): 2.16%
- viability, T/C (second compound 30 pM, first compound 30 µM): 1.89%
- viability, T/C (second compound 94.9 pM, first compound 0.0949 µM): 85.9%
- viability, T/C (second compound 94.9 pM, first compound 0.3 µM): 79.7%
- viability, T/C (second compound 94.9 pM, first compound 0.949 µM): 27.2%
- viability, T/C (second compound 94.9 pM, first compound 3 µM): 4.14%
- viability, T/C (second compound 94.9 pM, first compound 9.49 µM): 1.87%
- viability, T/C (second compound 94.9 pM, first compound 30 µM): 1.22%
- viability, T/C (second compound 0.0003 µM, first compound 0.0949 µM): 6.93%
- viability, T/C (second compound 0.0003 µM, first compound 0.3 µM): 3.52%
- viability, T/C (second compound 0.0003 µM, first compound 0.949 µM): 2.62%
- viability, T/C (second compound 0.0003 µM, first compound 3 µM): 1.83%
- viability, T/C (second compound 0.0003 µM, first compound 9.49 µM): 1.18%
- viability, T/C (second compound 0.0003 µM, first compound 30 µM): 1.45%
- viability, T/C (second compound 0.000949 µM, first compound 0.0949 µM): 0.91%
- viability, T/C (second compound 0.000949 µM, first compound 0.3 µM): 0.86%
- viability, T/C (second compound 0.000949 µM, first compound 0.949 µM): 0.95%
- viability, T/C (second compound 0.000949 µM, first compound 3 µM): 0.68%
- viability, T/C (second compound 0.000949 µM, first compound 9.49 µM): 0.61%
- viability, T/C (second compound 0.000949 µM, first compound 30 µM): 0.39%
- viability, T/C (second compound 0.003 µM, first compound 0.0949 µM): 3.53%
- viability, T/C (second compound 0.003 µM, first compound 0.3 µM): 0.25%
- viability, T/C (second compound 0.003 µM, first compound 0.949 µM): 0.21%
- viability, T/C (second compound 0.003 µM, first compound 3 µM): 0.22%
- viability, T/C (second compound 0.003 µM, first compound 9.49 µM): 0.24%
- viability, T/C (second compound 0.003 µM, first compound 30 µM): 0.31%
